Source: patent US20070218030A1, “Dietetic Preparation for Prevention and Treatment of Osteoporosis” (priority 2003, published 2007)

Tested on: ovarectomised female rats
Test: experimental osteoporosis in ovarectomised female rats, oral administration
Type: in vivo
Settings: for symptoms of osteoporosis: female rats after surgically removed ovaries, administered orally, not yet published experimental results
Experimental: An experiment was carried out on ovarectomised female rats in which an experimental osteoporosis was induced.

[1] = ovarectomised female rats with induced experimental osteoporosis, oral, molecular weight over 500 000 g/mol, dosage 150 to 4500 μg/kg

Substance: calcium hyaluronate
- symptoms of osteoporosis: able to suppress symptoms of osteoporosis

Substance: sodium hyaluronate
- symptoms of osteoporosis: able to suppress symptoms of osteoporosis
- bone density [1]: normalisation of bone density
- excretion of the metabolite of bone matrix breakdown into urine [1]: returned to normal
